Reference: patent US20170266164A1, “NEW METHODS AND USES” (Vicore Pharma AB, priority 2014, published 2017)
Entries after “also recorded” stand apart in the source; their conditions may differ.

How the values were obtained:
Angiotensin-II = experiment: Plasma and urine Angiotensin-II level (EIA) in drug-treated sickle mice; type: in vivo, mouse; conditions: compared to untreated Berk-SS controls
Description: Urine and plasma Angiotensin-II level was measured by using the Angiotensin II EIA kit (Cayman Chemical Company, Ann Arbor, Mich., catalog# A05880) following the manufacturer's instructions.
Mice were given the following drug treatments: a) Captopril (West-Ward Pharmaceutical, West Eatontown, N.J., NDC number #0143-1173-01) 0.15 mg/ml in drinking water. b) Losartan (Teva Pharmaceuticals USA Inc, North Wales, Pa., -NDC number#00937366-98) 0.3-0.6 mg/ml in drinking water. c) C21 (Vicore Pharma AB, Haraldsgatan 5, S-413 14 Goteborg, Sweden; Batch/Lot number # A11202910) 10 mg/kg/day in drinking water. Losartan and captopril water bottles were changed twice a week with fresh drugs and C21 was changed daily.

[1] = tested on: RBC and platelets of Berk-SS/WT hematopoietic chimeras; experiment: ROS analysis (CM-H2DCFDA flow cytometry) of blood cells of drug-treated Berk-SS chimeras; type: in vivo, mouse
Description: (§1) ROS was measured in WBC, RBC and platelets by mixing 0.5 μl of whole blood with 100 μl of FACS buffer (1×PBS, 0.5% bovine serum albumin), 0.1 μl of biotin anti-mouse Ter-119/erythroid Ly-76 antibody (BD Biosciences, San Jose, Calif., catalog#553672), 1 μl of Streptavidin APC-CyTM^7 (BD Biosciences, catalog#554063), 1 μl of PE anti-mouse CD45 antibody (BD Biosciences, cat#553081). […] All the tubes were incubated at room temperature for 20-30 minutes. The samples were washed with PBS at 200×g for 5 min and 100 μl of CM-H2DCFDA in 1:200 dilution was added to all sample tubes and the CM-H2DCFDA compensation tube while 100 μl of PBS was added to the rest of three compensation samples. The tubes were incubated for 30 minutes at 37° C. All the tubes were washed with 500 μl of PBS and centrifuged at 200×g for 5 min. After removing the supernatant the pellet was re-suspended in 200 μl of ice-cold PBS. Samples were stored on ice until analyzed on a BD FACSCantoTM II flow cytometer (BD Biosciences, San Jose, Calif.) by gating on the WBC, RBC and platelets. Mice were given the following drug treatments: a) Captopril (West-Ward Pharmaceutical, West Eatontown, N.J., NDC number #0143-1173-01) 0.15 mg/ml in drinking water. b) Losartan (Teva Pharmaceuticals USA Inc, North Wales, Pa., -NDC number#00937366-98) 0.3-0.6 mg/ml in drinking water. c) C21 (Vicore Pharma AB, […], Sweden; Batch/Lot number # A11202910) 10 mg/kg/day in drinking water. Losartan and captopril water bottles were changed twice a week with fresh drugs and C21 was changed daily.

[2] = tested on: erythrocytes and platelets of SCD mice; experiment: ROS analysis (CM-H2DCFDA flow cytometry) of blood cells of drug-treated SCD mice; type: in vivo, mouse
Description: as §1

Berk-SS/WT chimeric mice = experiment: Urine albumin, urine osmolality and glomerular disease in drug-treated sickle hematopoietic chimeras; type: in vivo, mouse; conditions: for albuminuria: Berk-SS/WT chimeric mice vs untreated chimeras; for glomerular disease: hematopoietic SCD chimeras; for UCA (urine osmolality): sickle chimeric mice, after 8 hour water deprivation
Excerpt: The Berk-AA mice are still relatively outbred and cannot be transplanted into BI/6 or Berk-SS mice without significant graft versus host disease. Knock-in SS (B6; 129-Hba^tm1(HBA)Tow Hbb^tm2(HBG1,HBB*)Tow/Hbb^tm3(HBG1,HBB)Tow/J) mice were kindly provided by Dr. Timothy Townes (University of Alabama, Birmingham). AT1R^-/- mice ([…]1Unc/J) were purchased from Jackson laboratories (Bar Harbor, Me.). AT2R^-/- mice were kindly provided by Dr. […] (Vanderbilt University School of Medicine, Nashville, Tenn.). Bone marrow from donor Berkeley sickle mice (or 057BI/6 control mice) were distributed 1:5 among the 057BI/6, AT1R^-/- and AT2R^-/- lethally irradiated (1175 cGy) recipient mice. All animals were maintained in the Cincinnati Children's Research Foundation's vivarium using protocols approved by the Institutional Animal Care and Use Committee. Twenty-four hour urine was collected using metabolic cages. Urine volume was measured and then protein stabilization buffer (0.4 mM ophenanthroline, 1 mM p-hydroxymercuribenzoic acid and 0.12 mM pepstatin A and 0.5M EDTA, pH 8.0) was added to a portion of urine to stabilize Ang-11. The rest of the urine was used for other analyses, including GFR, albumin, osmolality. Temporal assessments of urine albumin, creatinine and osmolality were made after an 8 hour water deprivation in SCD chimeric mice. […] Therefore, in Berk-SS mice (untransplanted/“straight SCD” native sickle mice) no water deprivation was performed prior to urine collection. Urine albumin level was measured using the mouse albumin ELISA kit (Bethyl Laboratories, Montgomery, Tex., catalog# E90-134). The ELISA was performed in a 96-well clear micro-plate (R&D systems, Minneapolis, Minn., catalog # DY990) as per manufacturer's instructions. Urine osmolality was measured by vapor pressure osmometer, Vapro 5600, (Wescor Biomedical Systems, South Logan, Utah). Urine creatinine was measured using the creatinine parameter assay kit (R&D Systems, Minneapolis, Minn., catalog# KGE005). Plasma creatinine was measured using the creatinine assay kit (Abcam, Cambridge, Mass., catalog# ab65340) following the manufacturer's instructions. Mice were given the following drug treatments: a) Captopril (West-Ward Pharmaceutical, West Eatontown, N.J., NDC number #0143-1173-01) 0.15 mg/ml in drinking water. b) Losartan (Teva Pharmaceuticals USA Inc, North Wales, Pa., -NDC number#00937366-98) 0.3-0.6 mg/ml in drinking water. c) C21 (Vicore Pharma AB, […], Sweden; Batch/Lot number # A11202910) 10 mg/kg/day in drinking water. Losartan and captopril water bottles were changed twice a week with fresh drugs and C21 was changed daily. In order to determine the role of the angiotensin receptors in SN, the inventors generated hematopoietic chimeric animals through bone marrow (BM) transplantation. First, they transplanted BM from Berk-SS mice into WT [057BI/6 (CD45.2+) or congenic CD45.1+BI/6] mice; mice that developed >95% sickle chimerism were followed for 6-9 months. Berk-SS/WT chimeras also developed hyperangiotensinemia followed by SN. Like in native (untransplanted) sickle mice, losartan or captopril ameliorated glomerular disease, but worsened UCA of hematopoietic SCD chimeras.

Berk-SS mice = experiment: Urine concentrating ability (urine osmolality), glomerulopathy and survival in drug-treated sickle mice; type: in vivo
Excerpt: The Berk-AA mice are still relatively outbred and cannot be transplanted into BI/6 or Berk-SS mice without significant graft versus host disease. Knock-in SS (B6; 129-Hba^tm1(HBA)Tow Hbb^tm2(HBG1,HBB*)Tow/Hbb^tm3(HBG1,HBB)Tow/J) mice were kindly provided by Dr. Timothy Townes (University of Alabama, Birmingham). AT1R^−/− mice (B6.129P2Agtr1a^tm1Unc/J) were purchased from Jackson laboratories (Bar Harbor, Me.). AT2R^−/− mice were kindly provided by Dr. Tadashi Inagami (Vanderbilt University School of Medicine, Nashville, Tenn.). […]
Twenty-four hour urine was collected using metabolic cages. Urine volume was measured and then protein stabilization buffer (0.4 mM ophenanthroline, 1 mM p-hydroxymercuribenzoic acid and 0.12 mM pepstatin A and 0.5M EDTA, pH 8.0) was added to a portion of urine to stabilize Ang-11. […] Urine albumin level was measured using the mouse albumin ELISA kit (Bethyl Laboratories, Montgomery, Tex., catalog# E90-134). […] Urine osmolality was measured by vapor pressure osmometer, Vapro 5600, (Wescor Biomedical Systems, South Logan, Utah). Urine creatinine was measured using the creatinine parameter assay kit (R&D Systems, Minneapolis, Minn., catalog# KGE005). Plasma creatinine was measured using the creatinine assay kit (Abcam, Cambridge, Mass., catalog# ab65340) following the manufacturer's instructions. […]

AT2 receptor = molecular target: T1, AT2 receptor (Rattus norvegicus, UniProt P35351); conditions: rat heart; regulation of TIMP1/MMP9 and TGF β1; cited from earlier work
T1 construct: Stimulation of the AT2 receptor with C21 (as defined herein) ameliorates LV fibrosis; host or cells: rat heart (in vivo, endogenous receptor)
T1 sequence (P35351 1-363): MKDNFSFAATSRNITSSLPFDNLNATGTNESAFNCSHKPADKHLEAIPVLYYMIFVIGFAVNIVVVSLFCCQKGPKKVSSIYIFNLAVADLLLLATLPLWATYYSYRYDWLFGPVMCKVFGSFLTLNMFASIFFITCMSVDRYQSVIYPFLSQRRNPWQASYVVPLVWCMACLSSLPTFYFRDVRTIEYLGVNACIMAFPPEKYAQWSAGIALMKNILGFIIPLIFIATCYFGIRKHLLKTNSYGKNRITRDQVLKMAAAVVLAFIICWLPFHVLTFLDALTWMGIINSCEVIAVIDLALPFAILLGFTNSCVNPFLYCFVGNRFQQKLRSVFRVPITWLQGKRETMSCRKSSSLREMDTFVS

SMILES	plasma AngII levels (Angiotensin-II)	urine AngII levels (Angiotensin-II)	RBC (erythrocyte) ROS [1]	platelet ROS [1]	erythrocyte ROS [2]	platelet ROS [2]	albuminuria (Berk-SS/WT chimeric mice)	glomerular disease (Berk-SS/WT chimeric mice)	UCA (urine osmolality) (Berk-SS/WT chimeric mice)	urine concentrating ability (UCA) (Berk-SS mice; sickle (SCD) mice, drug in drinking water)	LV fibrosis (AT2 receptor)	mortality (Berk-SS mice; Berk-SS mice on drug from 4 weeks of age, from severe hyposthenuria and dehydration)
CCCCc1nc(Cl)c(CO)n1Cc1ccc(-c2ccccc2-c2nn[nH]n2)cc1 [losartan]	lower; also recorded: reduced	lower; also recorded: reduced	significantly lowered	not platelets; also recorded: unchanged	significantly lowered; also recorded: specifically lowered	unaffected	did not develop albuminuria	ameliorated	worsened			
CCCCOC(=O)NS(=O)(=O)c1sc(CC(C)C)cc1-c1ccc(Cn2ccnc2)cc1 [Compound C21, N-butyloxycarbonyl-3-(4-imidazol-1-ylmethylphenyl)-5-iso-butylthiophene-2-sulfonamide]										improve	ameliorates	
C[C@H](CS)C(=O)N1CCC[C@H]1C(=O)O [captopril]	lower; also recorded: reduced	lower; also recorded: reduced	significantly lowered	not platelets; also recorded: unchanged	significantly lowered; also recorded: specifically lowered	unaffected	did not develop albuminuria	ameliorated	worsened			high mortality
